Results: patent US20260159512A1, “BCAT2 INHIBITORS” (AGIOS PHARMACEUTICALS, INC., priority 2021, published 2026)

Key:
[1] = biological target: T1, BCAT2 (Homo sapiens, UniProt O15382); assay: BCAT2 in vitro enzyme inhibition assay (resazurin/diaphorase-coupled fluorescence); assay type: biochemical; settings: average where tested multiple times
T1 sequence (O15382 28-392): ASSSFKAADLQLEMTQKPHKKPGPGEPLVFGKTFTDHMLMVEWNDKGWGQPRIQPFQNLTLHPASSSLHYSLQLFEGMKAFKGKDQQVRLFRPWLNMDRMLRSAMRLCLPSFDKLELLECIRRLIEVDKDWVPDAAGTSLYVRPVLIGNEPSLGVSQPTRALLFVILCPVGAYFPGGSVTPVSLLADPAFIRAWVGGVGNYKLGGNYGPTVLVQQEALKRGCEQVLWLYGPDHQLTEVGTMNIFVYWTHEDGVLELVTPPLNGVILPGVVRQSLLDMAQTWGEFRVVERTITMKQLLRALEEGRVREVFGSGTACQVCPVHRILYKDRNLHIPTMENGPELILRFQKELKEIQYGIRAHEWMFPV
Procedure, shortened: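 Coupled fluorescence readout: glutamate formed from L-leucine/α-ketoglutarate transamination drives GDH/NAD/diaphorase reduction of resazurin (Ex 540/Em 590). Human BCAT2 was first exposed 1 h at room temperature to compound, top final 100 μM in 3-fold, 10-point series; substrate reaction ran 1 h before SDS quench, in technical duplicate with DMSO max and enzyme-free min controls.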

[2] = biological target: T1, BCAT2; assay: BCAT2 in vitro cell inhibition using engineered A549 cells (KMV cell assay, 13C6-KMV by LC-MS/MS); assay type: cell-based; design: The result was an engineered A549 cell line that expressed endogenous BCAT2; endogenous in cells; host or cells: A549 cells with MUT and BCAT1 knocked out by CRISPR/CAS9; key to BCAT2 Cell Inhibition: A: less than or equal to 0.100 μM; B: greater than 0.100 and less than or equal to 0.500 μM; C: greater than 0.500 and less than or equal to 1.000 μM; d: greater than 1.000 μM; E: no fit; settings: average where tested multiple times

Compound | IC50 [1] [nM] | IC50 [2] [nM] | BCAT2 Cell Inhibition [2]
Cc1coc(-c2cc3c(cn2)nc(-c2ccccc2F)n3[C@H]2CCC[C@@H](NC(=O)c3ncc(Cl)s3)[C@@H]2O)n1 [Example 237, 5-chloro-N-((1R,2S,3S)-3-(2-(2-fluorophenyl)-6-(4-methyloxazol-2-yl)-1H-imidazo[4,5-c]pyridin-1-yl)-2-hydroxycyclohexyl)thiazole-2-carboxamide] | 100 to 500 | 500 to 1000 | –
O=C(N[C@@H]1CCC[C@H](n2c(-c3ccccc3F)nc3cnc(-c4ccn[nH]4)cc32)[C@H]1O)c1ncc(Cl)s1 [Example 239, 5-chloro-N-((1R,2S,3S)-3-(2-(2-fluorophenyl)-6-(1H-pyrazol-5-yl)-1H-imidazo[4,5-c]pyridin-1-yl)-2-hydroxycyclohexyl)thiazole-2-carboxamide] | 100 to 500 | 500 to 1000 | –
O=C(N[C@@H]1CCC[C@H](n2c(-c3ccccc3F)nc3cnc(-c4ccccn4)cc32)[C@H]1O)c1ncc(Cl)s1 [Example 241, 5-chloro-N-((1R,2S,3S)-3-(2-(2-fluorophenyl)-6-(pyridin-2-yl)-1H-imidazo[4,5-c]pyridin-1-yl)-2-hydroxycyclohexyl)thiazole-2-carboxamide] | 100 to 500 | 100 to 500 | –
Cc1cnn(-c2cc3c(cn2)nc(CC(C)C)n3[C@H]2CCC[C@@H](NC(=O)c3ncc(Cl)s3)[C@@H]2O)n1 [Example 244, 5-chloro-N-((1R,2S,3S)-2-hydroxy-3-(2-isobutyl-6-(4-methyl-2H-1,2,3-triazol-2-yl)-1H-imidazo[4,5-c]pyridin-1-yl)cyclohexyl)thiazole-2-carboxamide] | > 1000 | – | E
Cc1cnn(-c2cc3c(cn2)nc(-c2ccccc2F)n3[C@H]2CCC[C@@H](NC(=O)c3ncc(Cl)s3)[C@@H]2O)n1 [Example 247, 5-chloro-N-((1R,2S,3S)-3-(2-(2-fluorophenyl)-6-(4-methyl-2H-1,2,3-triazol-2-yl)-1H-imidazo[4,5-c]pyridin-1-yl)-2-hydroxycyclohexyl)thiazole-2-carboxamide] | 500 to 1000 | 500 to 1000 | –
O=C(N[C@@H]1CCC[C@H](n2c(-c3ccccc3F)nc3cnc(-c4ncco4)cc32)[C@H]1O)c1ncc(Cl)s1 [Example 249, 5-chloro-N-((1R,2S,3S)-3-(2-(2-fluorophenyl)-6-(oxazol-2-yl)-1H-imidazo[4,5-c]pyridin-1-yl)-2-hydroxycyclohexyl)thiazole-2-carboxamide] | 100 to 500 | 500 to 1000 | –
CC(C)Cc1nc2cnc(-c3nc[nH]n3)cc2n1[C@H]1CCC[C@@H](NC(=O)c2ncc(Cl)s2)[C@@H]1O [Example 251, 5-chloro-N-((1R,2S,3S)-2-hydroxy-3-(2-isobutyl-6-(1H-1,2,4-triazol-3-yl)-1H-imidazo[4,5-c]pyridin-1-yl)cyclohexyl)thiazole-2-carboxamide] | 100 to 500 | > 1000 | –
O=C(N[C@@H]1C[C@@H](O)C[C@H](n2c(-c3ccccc3F)nc3cnc(-c4ccccn4)cc32)C1)c1ncc(Cl)s1 [Example 253, 5-chloro-N-((1S,3R,5R)-3-(2-(2-fluorophenyl)-6-(pyridin-2-yl)-1H-imidazo[4,5-c]pyridin-1-yl)-5-hydroxycyclohexyl)thiazole-2-carboxamide] | 100 to 500 | 100 to 500 | –
O=C(N[C@@H]1C[C@@H](O)C[C@H](n2c(-c3ccccc3F)nc3cnc(-c4nc[nH]n4)cc32)C1)c1ccc(Cl)s1 [Example 255, 5-chloro-N-((1S,3R,5R)-3-(2-(2-fluorophenyl)-6-(1H-1,2,4-triazol-3-yl)-1H-imidazo[4,5-c]pyridin-1-yl)-5-hydroxycyclohexyl)thiophene-2-carboxamide] | ≤ 100 | 100 to 500 | –
CC(C)Cc1nc2cnc(-c3nc[nH]n3)cc2n1[C@H]1C[C@H](O)C[C@@H](NC(=O)c2ncc(Cl)s2)C1 [Example 257, 5-chloro-N-((1S,3R,5R)-3-hydroxy-5-(2-isobutyl-6-(1H-1,2,4-triazol-3-yl)-1H-imidazo[4,5-c]pyridin-1-yl)cyclohexyl)thiazole-2-carboxamide] | 500 to 1000 | – | E
O=C(N[C@@H]1C[C@@H](O)C[C@H](n2c(-c3ccccc3F)nc3cnc(-c4ncco4)cc32)C1)c1ncc(Cl)s1 [Example 261, 5-chloro-N-((1S,3R,5R)-3-(2-(2-fluorophenyl)-6-(oxazol-2-yl)-1H-imidazo[4,5-c]pyridin-1-yl)-5-hydroxycyclohexyl)thiazole-2-carboxamide] | 100 to 500 | > 1000 | –
CC(C)Cc1nc2cnc(-c3ccccn3)cc2n1[C@@H]1C[C@H](NC(=O)c2ncc(Cl)s2)CN(C)C1 [Example 263, 5-chloro-N-((3S,5R)-5-(2-isobutyl-6-(pyridin-2-yl)-1H-imidazo[4,5-c]pyridin-1-yl)-1-methylpiperidin-3-yl)thiazole-2-carboxamide] | > 1000 | – | E
CN1C[C@@H](NC(=O)c2ccc(Cl)s2)C[C@@H](n2c(-c3ccccc3F)nc3cnc(-c4nc[nH]n4)cc32)C1 [Example 265, 5-chloro-N-((3S,5R)-5-(2-(2-fluorophenyl)-6-(1H-1,2,4-triazol-3-yl)-1H-imidazo[4,5-c]pyridin-1-yl)-1-methylpiperidin-3-yl)thiophene-2-carboxamide] | 100 to 500 | > 1000 | –
O=C(N[C@H]1CCC[C@@H](n2c(-c3ccccc3F)nc3cnc(O[C@@H]4CCOC4)cc32)C1)c1ncc(Cl)s1 [Example 266, 5-chloro-N-((1S,3R)-3-(2-(2-fluorophenyl)-6-(((R)-tetrahydrofuran-3-yl)oxy)-1H-imidazo[4,5-c]pyridin-1-yl)cyclohexyl)thiazole-2-carboxamide] | 100 to 500 | – | E
Nc1cc2c(cn1)nc(-c1ccccc1F)n2[C@H]1C[C@H](O)C[C@@H](NC(=O)c2ncc(Cl)s2)C1 [Example 269, N-((1S,3R,5R)-3-(6-amino-2-(2-fluorophenyl)-1H-imidazo[4,5-c]pyridin-1-yl)-5-hydroxycyclohexyl)-5-chlorothiazole-2-carboxamide] | > 1000 | > 1000 | –
O=C(N[C@@H]1C[C@@H](O)C[C@H](n2c(-c3ccccc3F)nc3cnccc32)C1)c1ncc(Cl)s1 [Example 271, 5-chloro-N-((1S,3R,5R)-3-(2-(2-fluorophenyl)-1H-imidazo[4,5-c]pyridin-1-yl)-5-hydroxycyclohexyl)thiazole-2-carboxamide] | > 1000 | – | E
CNc1cc2c(cn1)nc(-c1ccccc1F)n2[C@H]1C[C@H](O)C[C@@H](NC(=O)c2ncc(Cl)s2)C1 [Example 273, 5-chloro-N-((1S,3R,5R)-3-(2-(2-fluorophenyl)-6-(methylamino)-1H-imidazo[4,5-c]pyridin-1-yl)-5-hydroxycyclohexyl)thiazole-2-carboxamide] | 500 to 1000 | – | E
O=C(N[C@@H]1C[C@@H](O)C[C@H](n2c(-c3ccccc3F)nc3cnc(F)cc32)C1)c1ncc(Cl)s1 [Example 275, 5-chloro-N-((1S,3R,5R)-3-(6-fluoro-2-(2-fluorophenyl)-1H-imidazo[4,5-c]pyridin-1-yl)-5-hydroxycyclohexyl)thiazole-2-carboxamide] | > 1000 | – | E
COc1cc2c(cn1)nc(-c1ccccc1F)n2[C@H]1C[C@H](O)C[C@@H](NC(=O)c2ncc(Cl)s2)C1 [Example 277, 5-chloro-N-((1S,3R,5R)-3-(2-(2-fluorophenyl)-6-methoxy-1H-imidazo[4,5-c]pyridin-1-yl)-5-hydroxycyclohexyl)thiazole-2-carboxamide] | > 1000 | – | E
CNC(=O)c1cc2nc(CC(C)C)n([C@H]3CCC[C@@H](NC(=O)c4ncc(Cl)s4)[C@@H]3O)c2cn1 [Example 279, 5-chloro-N-((1R,2S,3S)-2-hydroxy-3-(2-isobutyl-6-(methylcarbamoyl)-3H-imidazo[4,5-c]pyridin-3-yl)cyclohexyl)thiazole-2-carboxamide] | > 1000 | – | E
CNC(=O)c1ccc2c(c1)nc(-c1ccccn1)n2C1CC(O)CC(NC(=O)c2ncc(C(F)F)s2)C1 (centres unmarked) [Example 294, 5-(difluoromethyl)-N-(3-hydroxy-5-(5-(methylcarbamoyl)-2-(pyridin-2-yl)-1H-benzo[d]imidazol-1-yl)cyclohexyl)thiazole-2-carboxamide] | 500 to 1000 | – | E
CC(C)Cc1nc2cnc(N3CCC[C@@H]3C(C)(C)O)cc2n1[C@@H]1CCC[C@H](NC(=O)c2ncc(Cl)s2)C1 [Example 304, 5-chloro-N-((1S,3R)-3-(6-((R)-2-(2-hydroxypropan-2-yl)pyrrolidin-1-yl)-2-isobutyl-1H-imidazo[4,5-c]pyridin-1-yl)cyclohexyl)thiazole-2-carboxamide] | > 1000 | – | E
